# According to publication PMC11054303, “Design and Synthesis of Novel N-Benzylidene Derivatives of 3-Amino-4-imino-3,5-dihydro-4H-chromeno[2,3-d]pyrimidine under Microwave, In Silico ADME Predictions, In Vitro Antitumoral Activities and In Vivo Toxicity” (Pharmaceuticals, 2024):
# “Also recorded” adds a separate entry of the source.
# Tests used:
# [1] = tested on: zebrafish Danio rerio embryos; experiment: Angiogenesis of vessels in mCherry transgenic zebrafish embryos; type: in vivo
# Text: Another interest of zebrafish Danio rerio is the possibility to deeply evaluate the effects of angiogenic compounds. In our model, the formation of most vessels is complete, the circulation is present, and the heart is beating after 28 hpf of development. Angiogenesis begins in the somites and in the anterior portion of the embryos. Many zebrafish blood vessels form by angiogenic sprouting and appear to require the same proteins required for blood vessel growth in mammals. By using the mCherry line transgenic zebrafish, it is possible to analyze the direct effect of a compound on the angiogenesis of dorsal vessels. Zebrafish embryos can survive up to a week without an intact circulatory system because defective vessel formation has no immediate lethal effect.
# These experiments were performed in four technical replicates.
# HCT 116 = experiment: Antiproliferative assay, HCT 116; type: cell-based, human
# Procedure: (§1) The potential antiproliferative activity of these novel 3-(N-phenylmethyliden)amino-4-imino-3,5-dihydro-4H-chromeno[2,3-d]pyrimidine 10(a-i) and 10-(N-phenylmethyliden)amino-11-imino-11H-naphto[1′,2′:5,6]pyrano[2,3-d]pyrimidine 10(j-l) was evaluated in a panel of eight tumoral cell lines and in diploid skin fibroblasts used as normal cell lines for control. For these antitumor assays, chosen cell lines represent diverse types of human cancer, which are, respectively, human hepatocellular carcinoma (Huh7 D12), human colon adenocarcinoma (Caco2), human breast adenocarcinoma (MDA-MB231), MDA-MB468 for human breast carcinoma which correspond to the Triple Negative Breast Cancer (TNBC), human colon carcinoma (HCT116), PC3 as cell line initiated from bone metastasis of grade IV prostatic adenocarcinoma from a person, MCF7 as breast cancer line isolated from a person and PANC1, as human pancreatic cancer cell line. The potential antiproliferative activity was preliminarily evaluated in vitro at a 25 μM single dose.
# (§2) The IC50 was calculated from the full dose-response curve and used as a parameter for the antiproliferative activity of the new compounds.
# (§3) Skin diploid fibroblastic cells were provided by BIOPREDIC International Company (Rennes, France). Huh-7D12 (Ref ECACC: 01042712), Caco2 (Ref ECACC: 86010202), MDA-MB-231 (Ref ECACC: 92020424), MDA-MB-468, HCT-116 (Ref ECACC: 91091005), PC3 (Ref ECACC: 90112714), and MCF7 cell lines were obtained from the ECACC collection. PANC1 cell lines, a generous gift of LBAI Inserm 1227 (Brest, France). Cells were grown according to ECACC recommendations in DMEM for Huh-D12, MDA-MB-231, MDA-MB-468 and fibroblast, in EMEM for Caco2, in McCoy’s for HCT-116 and RPMI for PC3 at 37 °C and 5% CO2. All culture media with 10% of FBS, 1% of penicillin-streptomycin and 2 mM glutamine.
# (§4) Chemicals were solubilized in DMSO at a concentration of 10 mM (stock solution) and diluted in a culture medium to the desired final concentrations. […] The toxicity test of the chemicals on these cells was as follows: 2 × 10^3 cells for HCT-116 cells or 4 × 10^3 for the other cells were seeded in 96-multi-well plates in triplicate and left for 24 h for attachment, spreading and growing. Then, cells were exposed for 48 h to increasing concentrations of chemicals, ranging from 0.1 μM to 25 μM, in a final volume of 120 μL of culture medium. After 48 h of treatment, cells were washed in PBS and fixed in a cooled 90% ethanol/5% acetic acid solution for 20 min. The nuclei were stained with Hoechst 3342 (B2261 Merck Sigma-Aldrich) and counted. Image acquisition and analysis were performed using automated imaging analysis with a Cellomics Arrayscan VTI/HCS Reader (Thermo/Scientific, Waltham, MA, USA). The survival percentages were calculated as the percentage of cell number after chemical treatment over cell number after DMSO treatment. The IC50 was graphically determined.
# PC3 = experiment: Antiproliferative assay, PC3; type: cell-based, human
# Procedure: as §1, §2, §3, §4
# MCF7 = experiment: Antiproliferative assay, MCF7; type: cell-based, human
# Procedure: as §1, §2, §3, §4
# [2] = tested on: Store-Operated Ca^+2 Entry (SOCE); experiment: SOCE and Ca2+ release assay in B cell line (PLP cell line); type: cell-based; conditions: same protocol
# Procedure: Thapsigargin (TG), an inhibitor of endoplasmic reticulum Ca^+2-ATPase, is used to deplete intracellular calcium stores in a Ca^+2-free solution and therefore activate SOCE. […] In the context of a preliminary exploration of the functional effects of our molecules of interest and in the absence of a significant inhibition at a low concentration of compound 10h on the reference cell line we used (HEK293) no further exploration of the modulatory effect of this compound on cancer cell lines was initiated.
# [3] = tested on: zebrafish Danio rerio embryos; experiment: Zebrafish embryo toxicity assay (Zebratox, FET)
# Procedure: Fertilized eggs at 24–48 h post-fertilization (hpf) were selected and transferred to a 96-well plate (1 embryo/well). […] DMSO (0.6%) was used as vehicle control for the test compounds. The exposure duration continued up to 72 hpf because it is the endpoint of embryonic development [41]. The dead embryos were eliminated, and the fertilized eggs were imaged at 0, 24, 48 and 72 hpf.
# Eggs were collected 2 h post-fertilization (hpf) and kept in glass Petri dishes containing water for subsequent examination under a binocular microscope to confirm fertilization. […] Chemical treatments were performed by adding DMSO alone (negative control), or test molecule. These experiments were performed in four technical replicates.
# The experiments were performed using a Zeiss inverted fluorescent microscope (Observer Z1). The zebrafish toxicological test (Zebratox) was realized as follows: the 24 h post-fertilization embryos were arrayed by hand with one embryo per well in black-walled 96-well microplates for fluorescence assays (Perkin Elmer, Waltham, MA, USA). The embryos were treated before hatching from 0 to 72 h post-fertilization. The 20 mM DMSO stock chemicals were diluted in fish water and added to the wells at final concentrations from 0.0 2µM to 5 μM. The negative control (0.25% DMSO) was added to each replicate plate. The experiments were realized in triplicate in three independent plates. […] The zebrafish fertilized eggs were provided by the ImPACcell-Biosit Zebrafish facilities (Rennes, France).
# MDA MB468 = experiment: Antiproliferative assay, MDA MB468; type: cell-based, human
# Procedure: as §1, §2, §3, §4
# [4] = 48 and 72 hpf treatment, up to 5 μM
smiles,measurement,setting,value
"COc1cccc2c1Oc1ncn(/N=C/c3ccccc3O)c(=N)c1C2 [10h, (3E) 3-N-(2-Hydroxyphenylmethylidene)amino-4-imino-9-methoxy-3,5-dihydro-4H-chromeno[2,3-d]pyrimidine]",effect on vessel angiogenesis,[1]; 5 μM dose at 72 hpf,no angiogenic effect; also recorded: cannot observe an anti-angiogenic effect; also recorded: without delay in vessel angiogenesis
same,effect on vessel angiogenesis,[1]; [4],without delay in vessel angiogenesis
same,IC50,"HCT 116; Homo sapiens, HCT-116, 48 h incubation, average of three assays, standard error ± 0.5 μM",240 nM
same,Selectivity Index (SI) HCT 116,HCT 116; SI = IC50 fibroblasts/IC50 on HCT 116,> 104.2
same,IC50,"PC3; Homo sapiens, PC-3, 48 h incubation, average of three assays, standard error ± 0.5 μM",240 nM
same,Selectivity Index (SI) PC3,PC3; SI = IC50 fibroblasts/IC50 on PC3,> 104.2
same,IC50,"MCF7; Homo sapiens, MCF7, 48 h incubation, average of three assays, standard error ± 0.5 μM",270 nM
same,Selectivity Index (SI) MCF7,MCF7; SI = IC50 fibroblasts/IC50 on MCF7,> 92.6
same,inhibitory effects on SOCE and Ca2+ release,[2],without detecting any inhibitory effects on SOCE and Ca^2+ release; also recorded: no inhibitory effects on SOCE and Ca^+2 release
same,hatching of the embryos,[3]; 5 μM dose at 72 hpf,complete hatching
same,toxic effect on zebrafish embryos,[3]; 5 μM dose at 72 hpf,no toxic effect; also recorded: without toxic effect
same,hatching of the embryos,[3]; [4],complete hatching
same,toxic effect on zebrafish embryos,[3]; [4],no toxic effect
same,IC50,"MDA MB468; Homo sapiens, MDA-MB-468, 48 h incubation, average of three assays, standard error ± 0.5 μM",240 nM
same,Selectivity Index (SI) MDA MB468,MDA MB468; SI = IC50 fibroblasts/IC50 on MDA MB468,> 104.2
